Measured values from US20110269786A1, “TREATMENT OF MAJOR ADVERSE CARDIAC EVENTS AND ACUTE CORONARY SYNDROME IN DIABETIC PATIENTS USING SECRETORY PHOSPHOLIPASE A2 (SPLA2) INHIBITOR OR SPLA2 INHIBITOR COMBINATION THERAPIES” (priority 2010, published 2011).

Assays:
[1] = cited from earlier work
[2] = in vivo; cited from earlier work
[3] = 80 mg atorvastatin; subjects that had recently experienced an ACS event; cited from earlier work
[4] = Clinical trial in post-ACS subjects: MACE occurrence in diabetic subpopulation; settings: cumulative at 16 weeks
Description: 625 adult (18 years of age or older) human subjects who had recently experienced an index ACS event (UA, NSTEMI, or STEMI) were randomized to receive placebo or A-002 at 500 mg once daily via oral administration in a double-blinded manner. A-002 was delivered in the form of two 250 mg tablets. In addition, all subjects received atorvastatin at 80 mg once daily via oral administration of a single tablet.
Subjects were excluded if they were receiving statin therapy at maximum recommended or tolerated dosage (i.e., 40-80 mg QD for atorvastatin, fluvastatin, lovastatin, pravastatin, or simvastatin, or 20-40 mg QD rosuvastatin) at the time of the index ACS event. During the trial, subjects were prevented from using any lipid-lowering therapy other than 80 mg atorvastatin and/or A-002.
For purposes of this study, MACEs included all-cause mortality, non-fatal MI, documented UA requiring urgent hospitalization, revascularization occurring 60 days or more after the initial index ACS event, and non-fatal stroke. Subjects were evaluated at various timepoints after randomization and at study completion. Each evaluation included measurement of serum LDL levels and recordation of any MACEs or less severe adverse events occurring since the previous evaluation. In addition, certain evaluation periods included measurement of one or more of hs-CRP, sPLA2, IL-6, and/or other biomarker levels, vital signs, weight, and/or waist circumference. […] This final evaluation included at least a complete physical examination, a 12-lead ECG reading, measurement of LDL, hs-CRP, sPLA2, and IL-6 levels, and recordation of any MACEs during the study period.

[5] = Clinical trial in post-ACS subjects: MACE occurrence in ITT population; type: in vivo, human; settings: at 16 weeks
Description: A-002 was delivered in the form of two 250 mg tablets. In addition, all subjects received atorvastatin at 80 mg once daily via oral administration of a single tablet.
Subjects were randomized within 96 hours of hospital admission for an index ACS event, or within 96 hours of index ACS event diagnosis if already hospitalized. Prior to randomization, subjects were screened for pertinent medical history, and baseline levels of LDL and hs-CRP were measured. Baseline sPLA2 levels were also measured in a random subset of subjects. Percutaneous revascularization, if required or planned for a particular subject, was performed prior to randomization.
Subjects were excluded if they were receiving statin therapy at maximum recommended or tolerated dosage (i.e., 40-80 mg QD for atorvastatin, fluvastatin, lovastatin, pravastatin, or simvastatin, or 20-40 mg QD rosuvastatin) at the time of the index ACS event. […]
For purposes of this study, MACEs included all-cause mortality, non-fatal MI, documented UA requiring urgent hospitalization, revascularization occurring 60 days or more after the initial index ACS event, and non-fatal stroke. […] This final evaluation included at least a complete physical examination, a 12-lead ECG reading, measurement of LDL, hs-CRP, sPLA2, and IL-6 levels, and recordation of any MACEs during the study period.

| Compound | effect on total cholesterol, LDL-C, total LDL-C particle, and small LDL-C particle levels ([1]; once- or twice-daily administration, stable CVD population, diabetic and high baseline LDL-C subpopulations) | effect on levels of inflammatory markers such as hs-CRP and sPLA2 ([1]; stable populations) | absorption and conversion to active molecule [2] | terminal half-life (t1/2) [2] | absolute reduction in death, non-fatal MI, cardiac arrest with resuscitation, or worsening symptomatic myocardial ischemia [3] | relative reduction in death, non-fatal MI, cardiac arrest with resuscitation, or worsening symptomatic myocardial ischemia [3] | Death, % of subjects [4] | Death, number of subjects [4] | MI, % of subjects [4] | MI, number of subjects [4] | Revascularization ≧ 60 days, % of subjects [4] | Revascularization ≧ 60 days, number of subjects [4] | Stroke, % of subjects [4] | Stroke, number of subjects [4] | Total MACEs, % of subjects [4] | UA requiring hospitalization, % of subjects [4] | UA requiring hospitalization, number of subjects [4] | % of subjects who experienced a MACE [5] |
| --- | --- | --- | --- | --- | --- | --- | --- | --- | --- | --- | --- | --- | --- | --- | --- | --- | --- | --- |
| CCc1c(C(=O)C(N)=O)c2c(OCC(=O)OC)cccc2n1Cc1ccccc1 [A-002, [[3-(2-Amino-1,2-dioxoethyl)-2-ethyl-1-(phenylmethyl)-1H-indol-4-yl]oxy]acetic acid methyl ester] | decreases | decreases | rapidly absorbed and hydrolyzed to the active A-001 molecule | approximately ten |  |  |  |  |  |  |  |  |  |  |  |  |  |  |
| CC(C)c1c(C(=O)Nc2ccccc2)c(-c2ccccc2)c(-c2ccc(F)cc2)n1CC[C@@H](O)C[C@@H](O)CC(=O)O [Placebo (atorvastatin only), atorvastatin] |  |  |  |  | 2.6% | 16% | 3.4% | 3 | 0.0% | 0 | 0.0% | 0 | 0.0% | 0 | 6.9% | 3.4% | 3 | 6.1% |
